From patent US20060235222A1, “Indole-derivative modulators of steroid hormone nuclear receptors” (ELI LILLY AND COMPANY, priority 2003, published 2006)

What was measured:
human MR = target: T1, human MR (Homo sapiens, UniProt P08235); experiment: Mineralocorticoid Receptor Binding Assay (Method 1), [3H]-aldosterone competition; details: 0.5 nM [3H]-aldosterone, human MR expressed in Sf9 cells
T1 construct: The full length human MR gene is cloned from a human kidney or human brain cDNA library; inferred from own knowledge of the pAcHLT vector (N); made in house; host or cells: Sf9 insect cells (baculovirus)
T1 sequence (P08235 1-984): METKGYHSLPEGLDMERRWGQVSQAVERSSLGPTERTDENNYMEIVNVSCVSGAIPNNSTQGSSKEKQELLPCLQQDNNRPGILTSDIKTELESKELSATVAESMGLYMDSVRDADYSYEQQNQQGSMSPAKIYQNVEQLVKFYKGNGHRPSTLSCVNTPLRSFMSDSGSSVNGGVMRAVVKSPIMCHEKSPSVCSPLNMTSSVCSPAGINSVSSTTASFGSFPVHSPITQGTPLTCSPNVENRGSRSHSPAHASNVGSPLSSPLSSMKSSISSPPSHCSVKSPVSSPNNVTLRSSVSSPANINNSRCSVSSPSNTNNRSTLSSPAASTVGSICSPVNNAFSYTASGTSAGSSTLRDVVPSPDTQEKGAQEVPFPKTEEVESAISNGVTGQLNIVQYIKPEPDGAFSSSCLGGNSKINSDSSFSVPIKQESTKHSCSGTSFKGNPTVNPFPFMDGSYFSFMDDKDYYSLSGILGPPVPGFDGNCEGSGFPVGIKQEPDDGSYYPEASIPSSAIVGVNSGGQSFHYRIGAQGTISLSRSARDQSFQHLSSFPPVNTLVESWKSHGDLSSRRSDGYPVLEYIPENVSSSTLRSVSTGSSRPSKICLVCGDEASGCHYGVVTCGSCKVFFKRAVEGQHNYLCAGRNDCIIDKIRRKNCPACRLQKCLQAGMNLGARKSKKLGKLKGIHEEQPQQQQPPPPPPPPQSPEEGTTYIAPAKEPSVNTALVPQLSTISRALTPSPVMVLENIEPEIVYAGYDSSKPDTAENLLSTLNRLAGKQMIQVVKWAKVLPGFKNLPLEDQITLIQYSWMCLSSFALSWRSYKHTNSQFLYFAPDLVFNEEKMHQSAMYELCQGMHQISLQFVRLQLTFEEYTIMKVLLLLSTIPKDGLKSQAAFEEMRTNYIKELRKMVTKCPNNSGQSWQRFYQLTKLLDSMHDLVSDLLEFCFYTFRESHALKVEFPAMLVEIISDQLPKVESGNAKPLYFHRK
In short: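 Full-length human MR expressed in Sf9 cells via baculovirus; lysate supernatant (about 20-25 μg protein) incubated with 0.5 nM [3H]-aldosterone and test compound for about 16 h at 4° C. Buffer was Tris/molybdate/phosphate/pyrophosphate with 10% glycerol, pH 7.5; filter-bound complex counted by scintillation.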

[1] = target: T2, human GR (glucocorticoid receptor) (Homo sapiens, UniProt P04150); experiment: Alternative Binding Assay Protocol (Method 2), 293-GR lysate, 3H-dexamethasone competition; details: 0.3 nM 3H-dexamethasone
T2 construct: expressed in transfected cells; host or cells: 293 cells
T2 sequence (P04150 1-777): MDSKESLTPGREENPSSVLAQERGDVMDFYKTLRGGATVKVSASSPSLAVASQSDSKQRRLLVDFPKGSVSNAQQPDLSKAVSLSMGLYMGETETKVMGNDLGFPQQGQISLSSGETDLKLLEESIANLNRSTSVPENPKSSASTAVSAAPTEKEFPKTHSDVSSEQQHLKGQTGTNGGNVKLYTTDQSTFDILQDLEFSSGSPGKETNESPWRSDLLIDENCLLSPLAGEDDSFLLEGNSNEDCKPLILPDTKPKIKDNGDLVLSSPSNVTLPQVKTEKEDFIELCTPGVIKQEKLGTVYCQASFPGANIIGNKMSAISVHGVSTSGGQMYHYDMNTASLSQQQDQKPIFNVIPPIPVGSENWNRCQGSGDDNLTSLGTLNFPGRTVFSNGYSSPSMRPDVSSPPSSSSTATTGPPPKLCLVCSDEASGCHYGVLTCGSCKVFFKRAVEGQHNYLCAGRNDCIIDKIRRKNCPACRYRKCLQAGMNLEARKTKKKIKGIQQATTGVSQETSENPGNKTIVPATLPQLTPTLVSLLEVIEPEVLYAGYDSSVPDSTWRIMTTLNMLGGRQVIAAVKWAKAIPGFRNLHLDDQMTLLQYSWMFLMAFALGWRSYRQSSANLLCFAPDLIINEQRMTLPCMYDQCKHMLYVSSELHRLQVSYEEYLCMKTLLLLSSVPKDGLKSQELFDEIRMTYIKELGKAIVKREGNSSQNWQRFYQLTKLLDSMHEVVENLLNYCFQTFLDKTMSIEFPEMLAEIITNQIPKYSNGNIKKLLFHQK
Description: Alternative Binding Assay Protocol for MR, GR, AR, and PR (Method 2):
Cell lysates from 293 cells overexpressing human GR (glucocorticoid receptor), AR (androgen receptor), MR (mineralocorticoid receptor) or PR (progesterone-receptor) are used for competition binding assays to determine Ki values for test compounds. […] Competing compounds are added at various concentraions in half-log increments. Non-specific binding is determined in the presence of 500 nM dexamethasone for GR binding, 500 nM aldosterone for MR binding, or 500 nM methyltrienolone for AR and PR binding. The binding reaction (140 μl) is incubated for overnight at 4° C., then 70 μl of cold charcoal-dextran buffer (containing per 50 ml of assay buffer, 0.75 g of charcoal and 0.25 g of dextran) is added to each reaction. Plates are mixed 8 minutes on an orbital shaker at 4° C. Plates are then centrifuged at 3,000 rpm at 4° C. for 10 minutes. An aliquot of 120 μl of the mix is transferred to another 96-well plate and 175 μl of Wallac Optiphase “Hisafe 3” scintillation fluid is added to each well. Plates are sealed and shaken vigorously on an orbital shaker. After an incubation of 2 hrs, plates are read in a Wallac Microbeta counter. […] The Kd for ^3H-dexamethasone for GR binding, ^3H-methyltrienolone for AR binding, ^3H-aldosterone for MR binding, or ^3H-methyltrienolone for PR binding, is determined by saturation binding. The IC50 values for compounds are converted to Ki using Cheng-Prusoff equation and the Kd determined by saturation binding assay.

glucocorticoid receptor = target: T3, glucocorticoid receptor (Homo sapiens, UniProt P04150); experiment: Glucocorticoid Receptor Binding Assay (Method 1), [3H]-dexamethasone competition, A549 cell extract; details: 1.86 nM [3H]-dexamethasone, read-out: GR Ki (nM) Method 1
T3 construct: containing 50-200 ug of A549 cell extract and 1.86 nM; host or cells: A549 human lung epithelial cells
T3 sequence (P04150 1-777): T2 sequence (P04150 1-777)
In short: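 Receptor source: sonicated extract of human A549 lung epithelial cells in glycerol/Tris-HCl pH 7.2 buffer with sodium molybdate. [3H]-dexamethasone competition run 16 h at 4 °C; unbound radioligand stripped with dextran-coated charcoal (8 min, RT) and receptor-bound radioactivity quantified by scintillation counting.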

Row | SMILES | Ki (human MR) [nM] | Ki [1] [nM] | melting point | Ki (glucocorticoid receptor) [nM]
1 | CCC(CC)(c1ccc2nc(N)sc2c1)c1c[nH]c2c(NS(C)(=O)=O)cccc12 [Example 144, N-{3-[1-(2-Amino-benzothiazol-6-yl)-1-ethyl-propyl]-1H-indol-7-yl}-methanesulfonamide] | < 500 |  | 155 to 160 °C | 
2 | CCC(CC)(c1ccc2[nH]ncc2c1)c1c[nH]c2c(NS(C)(=O)=O)cccc12 [Example 138, N-{3-[1-Ethyl-1-(1H-indazol-5-yl)-propyl]-1H-indol-7-yl}-methanesulfonamide] | < 500 | < 500 | 123 to 128 °C | 
3 | CCC(CC)(c1ccc2nc(C)oc2c1)c1c[nH]c2c(NS(C)(=O)=O)cccc12 [Example 136, N-{3-[1-Ethyl-1-(2-methyl-benzooxazol-6-yl)-propyl]-1H-indol-7-yl}-methanesulfonamide] | < 500 | < 1000 | 98 to 105 °C | 
4 | CCC(CC)(c1ccc(F)cc1F)c1c[nH]c2c(NS(C)(=O)=O)cccc12 [Example 62, N-{3-[1-(2,4-Difluoro-phenyl)-1-ethyl-propyl]-1H-indol-7-yl}-methanesulfonamide] | < 500 |  | 144 to 147 °C | < 500
5 | CCC(CC)(c1ccc2c(N)noc2c1)c1c[nH]c2c(NS(C)(=O)=O)cccc12 [Example 143, N-{3-[1-(3-Amino-benzo[d]isoxazol-6-yl)-1-ethyl-propyl]-1H-indol-7-yl}-methanesulfonamide] | < 500 |  | 95 to 105 °C | 
6 | CCC(CC)(c1ccc2ccn(C(C)=O)c2c1)c1c[nH]c2c(NS(C)(=O)=O)cccc12 [Example 158, N-{3-[1-(1-Acetyl-1H-indol-6-yl)-1-ethyl-propyl]-1H-indol-7-yl}-methanesulfonamide] |  | < 500 | 216 to 218 °C | 
7 | CCC(CC)(c1ccc2ocnc2c1)c1c[nH]c2c(NS(C)(=O)=O)cccc12 [Example 146, N-[3-(1-Benzooxazol-5-yl-1-ethyl-propyl)-1H-indol-7-yl]-methanesulfonamide] | < 500 | < 500 | 132 to 135 °C | 
8 | CCC(CC)(c1ccc2sc(C)nc2c1)c1c[nH]c2c(NS(C)(=O)=O)cccc12 [Example 140, N-{3-[1-Ethyl-1-(2-methyl-benzothiazol-5-yl)-propyl]-1H-indol-7-yl}-methanesulfonamide] |  |  | 112 to 117 °C | 
9 | CCC(CC)(c1ccc2ccsc2c1)c1c[nH]c2c(NS(C)(=O)=O)cccc12 [Example 139, N-[3-(1-Benzo[b]thiophen-6-yl-1-ethyl-propyl)-1H-indol-7-yl]-methanesulfonamide] | < 500 | < 500 | 97 to 107 °C | 

Further lines, results first:

Row | Ki (human MR) [nM] | Ki [1] [nM] | melting point | Ki (glucocorticoid receptor) [nM] | SMILES
10 | < 500 | < 500 | 286 to 288 °C |  | CCC(CC)(c1ccc2nc(NC(C)=O)sc2c1)c1c[nH]c2c(NS(C)(=O)=O)cccc12 [Example 147, N-{6-[1-Ethyl-1-(7-methanesulfonylamino-1H-indol-3-yl)-propyl]-benzothiazol-2-yl}-acetamide]
11 | < 500 |  | 117 to 120 °C |  | CCC(CC)(c1ccc2ncsc2c1)c1c[nH]c2c(NS(C)(=O)=O)cccc12 [Example 149, N-[3-(1-Benzothiazol-6-yl-1-ethyl-propyl)-1H-indol-7-yl]-methanesulfonamide]
12 | < 500 |  | 115 to 120 °C |  | CCC(CC)(c1ccc2[nH]ccc2c1)c1c[nH]c2c(NS(C)(=O)=O)cccc12 [Example 157, N-{3-[1-Ethyl-1-(1H-indol-5-yl)-propyl]-1H-indol-7-yl}-methanesulfonamide]
13 | < 500 |  | 137 to 138 °C | < 500 | CCC(CC)(c1ccc(F)cc1)c1c[nH]c2c(NS(C)(=O)=O)cccc12 [Example 59, N-{3-[1-Ethyl-1-(4-fluoro-phenyl)-propyl]-1H-indol-7-yl}-methanesulfonamide]
14 | < 500 |  | 110 to 115 °C |  | CCC(CC)(c1ccc2cc[nH]c2c1)c1c[nH]c2c(NS(C)(=O)=O)cccc12 [Example 159, N-{3-[1-Ethyl-1-(1H-indol-6-yl)-propyl]-1H-indol-7-yl}-methanesulfonamide]
15 | < 500 |  | 105 to 115 °C (dec.) |  | CCC(CC)(c1ccc2scnc2c1)c1c[nH]c2c(NS(C)(=O)=O)cccc12 [Example 142, N-[3-(1-Benzothiazol-5-yl-1-ethyl-propyl)-1H-indol-7-yl]-methanesulfonamide]
16 | < 500 |  | 155 to 161 °C |  | CCC(CC)(c1ccc2onc(N)c2c1)c1c[nH]c2c(NS(C)(=O)=O)cccc12 [Example 152, N-{3-[1-(3-Amino-benzo[d]isoxazol-5-yl)-1-ethyl-propyl]-1H-indol-7-yl}-methanesulfonamide]
17 |  | < 500 | 188 to 192 °C |  | CCC(CC)(c1ccc2nc(C)[nH]c2c1)c1c[nH]c2c(NS(C)(=O)=O)cccc12 [Example 154, N-{3-[1-Ethyl-1-(2-methyl-3H-benzoimidazol-5-yl)-propyl]-1H-indol-7-yl}-methanesulfonamide]
18 | < 500 | < 500 | 217 to 220 °C |  | CCC(CC)(c1ccc2sc(Cl)nc2c1)c1c[nH]c2c(NS(C)(=O)=O)cccc12 [Example 161, N-{3-[1-(2-Chloro-benzothiazol-5-yl)-1-ethyl-propyl]-1H-indol-7-yl}-methanesulfonamide]
